Patent US20180298405A1, “METHODS AND COMPOSITIONS TO INCREASE HUMAN SOMATIC CELL NUCLEAR TRANSFER (SCNT) EFFICIENCY BY REMOVING HISTONE H3-LYSINE TRIMETHYLATION, AND DERIVATION OF HUMAN NT-ESC” (CHILDREN'S MEDICAL CENTER CORPORATION, priority 2015, published 2018)

Test system: reprogramming resistant regions (RRRs) / ZGA genes
Assay: RNA-seq of late 8-cell human SCNT embryos with or without KDM4A mRNA injection (ZGA of RRRs, KDM4A-responsive genes)
Type: cell-based
Details: KDM4A SCNT 8-cell embryos
Description: A sliding window (size 20 kb, step size 10 kb) was used to assess the genome-wide expression level of 4-cell and 8-cell human embryos. For each window, the expression level was quantified with normalized RPM (reads per millions of uniquely mapped reads). […] These activated regions were classed into three groups based on their expression differences in human SCNT and IVF 8-cell embryos.
The SCNT embryos used for ZGA analysis were generated using oocytes donated by a single healthy person (#64) and dermal fibroblast cells from an AMD patient (DFB-8). SCNT and IVF embryos were cultured up to late 8-cell stage, when the compaction of blastomeres is initiated, then they were treated briefly with acid Tyrode solution to remove zona pellucida. To prepare for the 8-cell SCNT embryo, oocytes from a single oocyte donor, and skin fibroblast cells from a single somatic nuclear donor were used. All the procedures are the same as described in the “Human SCNT procedure and KMD4A mRNA injection” section. Only embryos that reached the late 8-cell stage synchronically 74 hours post activation were collected and used for this experiment.
For preparation of the control IVF embryos, several donated early 8-cell stage IVF embryos were thawed and cultured for 5-7 hours to allow them to reach late 8-cell stage before being processed. After removal of the zona pellucida, the denuded embryos were washed 3 times in PBS, loaded into RNAse and DNAse free PCR tubes, spin downed, and snap frozen in liquid nitrogen. Then, they were kept at −80° C. until use. As controls, dermal fibroblast cells of somatic nuclear donors were also prepared. Those fibroblast cells were cultured in a 25 cm^2 flask in DMEM 10% FBS, and approximately 10,000 cells/donor were collected, snap frozen, and stored at −80° C. until use.
Five 8-cell embryos for each group were directly lysed and used for cDNA synthesis using SMART-Seq v4 Ultra Low Input RNA Kit (Clontech). For MEF donor, 10 ng total RNA was used for cDNA synthesis using SMART-Seq v4 Ultra Low Input RNA Kit. After amplification, the cDNA samples were fragmented using Covaris sonicator M220 to an average size of 150 bp (Covaris). Sequencing libraries were made with the fragmented DNA using NEBNext Ultra DNA Library Prep Kit for Illumina according to manufacturer's instruction (New England Biolabs) with different barcodes. For each RNA-seq analysis of hESCs, 1 μg total RNA was used for mRNA purification. Barcoded RNA-seq libraries were generated using NEBNext Ultra Directional RNA Library Prep Kit for Illumina (New England Biolabs). Single end 50 bp sequencing was performed on a HiSeq 2500 sequencer (Illumina). Sequencing reads were mapped to the human genome (hg19) with Tophat2. All programs were performed with default settings (unless otherwise specified). At least 22 million uniquely mapped reads were obtained for each sequencing library, and subsequently assembled into transcripts guided by the reference annotation (Refseq gene models) with Cufflinks v2.0.2. Expression level of each gene was quantified with normalized FPKM (fragments per kilobase of exon per million mapped fragments). Statistical analyses were performed with R (available at: “www.r-project.org/”). Independent 2 group Wilcoxon rank sum tests were used to compare distributions using the wilcox.test function in R. Pearson's r coefficient was calculated using the cor function with default parameters. The hierarchical clustering analysis of the global gene expression pattern in different samples was carried out using heatmap.2 function (gplots package) in R.

Substance: KDM4A mRNA: in vitro transcribed mRNA of full length human KDM4A/JHDM3A cDNA, an H3K9me3 demethylase (SEQ ID NO: 1)
- NOC4L Expression level (FPKM): 0.61 FPKM
- NOP58 Expression level (FPKM): 55.54 FPKM
- NUDT9 Expression level (FPKM): 1.35 FPKM
- PAGE5 Expression level (FPKM): 1.86 FPKM
- PDCD11 Expression level (FPKM): 1.88 FPKM
- PDE4DIP Expression level (FPKM): 4.04 FPKM
- PHOSPHO1 Expression level (FPKM): 0.23 FPKM
- PIK3R4 Expression level (FPKM): 1.31 FPKM
- PLBD1 Expression level (FPKM): 0.74 FPKM
- PLD2 Expression level (FPKM): 1 FPKM
- PLVAP Expression level (FPKM): 1.63 FPKM
- POLR3K Expression level (FPKM): 109.26 FPKM
- POTEM Expression level (FPKM): 1.96 FPKM
- PPM1N Expression level (FPKM): 0.89 FPKM
- PPP2CB Expression level (FPKM): 1.07 FPKM
- PRAMEF3 Expression level (FPKM): 1.48 FPKM
- PRAMEF4 Expression level (FPKM): 18.29 FPKM
- PRAMEF6 Expression level (FPKM): 14.29 FPKM
- PRAMEF10 Expression level (FPKM): 49.42 FPKM
- PRAMEF11 Expression level (FPKM): 18.18 FPKM
- PRAMEF17 Expression level (FPKM): 0.66 FPKM
- PRPF39 Expression level (FPKM): 3.48 FPKM
- PTPN22 Expression level (FPKM): 1.15 FPKM
- RAB9A Expression level (FPKM): 1.37 FPKM
- RASA2 Expression level (FPKM): 1 FPKM
- RFK Expression level (FPKM): 2.86 FPKM
- RNU11 Expression level (FPKM): 3.75 FPKM
- RP2 Expression level (FPKM): 1.31 FPKM
- RPF2 Expression level (FPKM): 102.42 FPKM
- RPS6KB2 Expression level (FPKM): 0.32 FPKM
- SAMD8 Expression level (FPKM): 4.34 FPKM
- SCO1 Expression level (FPKM): 1.99 FPKM
- SEPX1 Expression level (FPKM): 2.34 FPKM
- SERTAD1 Expression level (FPKM): 7.03 FPKM
- SFTPD Expression level (FPKM): 0.61 FPKM
- SGCG Expression level (FPKM): 1.03 FPKM
- SGPP1 Expression level (FPKM): 1.39 FPKM
- SHFM1 Expression level (FPKM): 21.11 FPKM
- SIAH1 Expression level (FPKM): 88.93 FPKM
- SNAPC1 Expression level (FPKM): 17.7 FPKM
- SNAR-C3 Expression level (FPKM): 98.14 FPKM
- SNAR-E Expression level (FPKM): 2468.68 FPKM
- SNHG9 Expression level (FPKM): 63.59 FPKM
- SNHG12 Expression level (FPKM): 7.02 FPKM
- SPINK7 Expression level (FPKM): 12.41 FPKM
- SRA1 Expression level (FPKM): 5.51 FPKM
- SSX3 Expression level (FPKM): 5.71 FPKM
- STAG3L2 Expression level (FPKM): 2.72 FPKM
- STAG3L4 Expression level (FPKM): 2.35 FPKM
- STAP2 Expression level (FPKM): 0.83 FPKM
- SUZ12P Expression level (FPKM): 1.31 FPKM
- TAC1 Expression level (FPKM): 5.72 FPKM
- TCEANC2 Expression level (FPKM): 2.9 FPKM
- TCN2 Expression level (FPKM): 0.69 FPKM
- TEN1 Expression level (FPKM): 3.43 FPKM
- THOC5 Expression level (FPKM): 5.02 FPKM
- TIMM10 Expression level (FPKM): 25.23 FPKM
- TMEM41B Expression level (FPKM): 19.19 FPKM
- TMEM92 Expression level (FPKM): 0.97 FPKM
- TMEM159 Expression level (FPKM): 8.54 FPKM
- TRIM39-RPP21 Expression level (FPKM): 1.26 FPKM
- TRIML2 Expression level (FPKM): 1.8 FPKM
- TSEN34 Expression level (FPKM): 1.75 FPKM
- TTC27 Expression level (FPKM): 0.56 FPKM
- TTC28-AS1 Expression level (FPKM): 7.79 FPKM
- UBTFL1 Expression level (FPKM): 120.09 FPKM
- UTP3 Expression level (FPKM): 2.98 FPKM
- UTP23 Expression level (FPKM): 3.29 FPKM
- UTS2 Expression level (FPKM): 1.14 FPKM
- VAMP1 Expression level (FPKM): 13.05 FPKM
- VCX2 Expression level (FPKM): 0.24 FPKM
- VCX Expression level (FPKM): 0.23 FPKM
- VPS54 Expression level (FPKM): 3.79 FPKM
- WDR77 Expression level (FPKM): 3.45 FPKM
- XAGE5 Expression level (FPKM): 0.11 FPKM
- ZCCHC10 Expression level (FPKM): 15.69 FPKM
- ZFYVE19 Expression level (FPKM): 4.05 FPKM
- ZNF92 Expression level (FPKM): 21.84 FPKM
- ZNF100 Expression level (FPKM): 3.76 FPKM
- ZNF174 Expression level (FPKM): 1.13 FPKM
- ZNF208 Expression level (FPKM): 1.74 FPKM
- ZNF254 Expression level (FPKM): 1.32 FPKM
- ZNF273 Expression level (FPKM): 4.43 FPKM
- ZNF280A Expression level (FPKM): 84.94 FPKM
- ZNF326 Expression level (FPKM): 2.8 FPKM
- ZNF345 Expression level (FPKM): 1.41 FPKM
- ZNF486 Expression level (FPKM): 2.77 FPKM
- ZNF487P Expression level (FPKM): 3.02 FPKM
- ZNF625-ZNF20 Expression level (FPKM): 1.95 FPKM
- ZNF625 Expression level (FPKM): 1 FPKM
- ZNF669 Expression level (FPKM): 8.14 FPKM
- ZNF675 Expression level (FPKM): 15.04 FPKM
- ZNF676 Expression level (FPKM): 4.61 FPKM
- ZNF679 Expression level (FPKM): 86.94 FPKM
- ZNF680 Expression level (FPKM): 5.58 FPKM
- ZNF684 Expression level (FPKM): 7.21 FPKM
- ZNF700 Expression level (FPKM): 1.86 FPKM
- ZNF724P Expression level (FPKM): 13.16 FPKM
- ZNF729 Expression level (FPKM): 0.94 FPKM
- ZNF735 Expression level (FPKM): 33.19 FPKM
- ZNF789 Expression level (FPKM): 5.2 FPKM
- ZNF791 Expression level (FPKM): 3.79 FPKM
- ZNF826P Expression level (FPKM): 2.07 FPKM
- ZNHIT6 Expression level (FPKM): 3.88 FPKM
